How the values were obtained:
rape = assay: Test B pre/postemergence rape; format: in vivo, Brassica napus
Method in brief: (§1)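 Test chemicals in a non-phytotoxic solvent mixture with surfactant were sprayed preemergence onto planted seeds and postemergence onto plants 2 to 18 cm tall (1- to 4-leaf stage). After twelve to sixteen days in a greenhouse, injury was visually rated against untreated controls from 0 (no effect) to 10 (complete control).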

cocklebur = assay: Test B pre/postemergence cocklebur; format: in vivo, Xanthium strumarium
Method in brief: as §1

crabgrass = assay: Test B pre/postemergence crabgrass; format: in vivo, Digitaria sanguinalis
Method in brief: as §1

wild oat = assay: Test B pre/postemergence wild oat; format: in vivo, Avena fatua
Method in brief: as §1

surinam grass = assay: Test B pre/postemergence surinam grass; format: in vivo, Brachiaria decumbens
Method in brief: as §1

blackgrass = assay: Test B pre/postemergence blackgrass; format: in vivo, Alopecurus myosuroides
Method in brief: as §1

sugar beet = assay: Test B pre/postemergence sugar beet; format: in vivo, Beta vulgaris
Method in brief: as §1

smallflower flatsedge = assay: Test B flood test smallflower flatsedge; format: in vivo, Cyperus difformis
Method in brief: (§2)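 Plants were grown to the 2-leaf stage before treatment with test chemical, then held in a greenhouse for twelve to sixteen days. Injury was visually rated against untreated controls on a 0–10 scale, where 0 is no effect and 10 is complete control.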

velvetleaf = assay: Test B pre/postemergence velvetleaf; format: in vivo, Abutilon theophrasti
Method in brief: as §1

corn = assay: Test B pre/postemergence corn; format: in vivo, Zea mays
Method in brief: as §1

wheat = assay: Test B pre/postemergence wheat; format: in vivo, Triticum aestivum
Method in brief: as §1

pigweed = assay: Test B pre/postemergence pigweed; format: in vivo, Amaranthus retroflexus
Method in brief: as §1

bedstraw = assay: Test B pre/postemergence bedstraw; format: in vivo, Galium aparine
Method in brief: as §1

bamyardgrass = assay: Test B flood test barnyardgrass; format: in vivo, Echinochloa crus-galli
Method in brief: as §2

purple nutsedge = assay: Test B pre/postemergence purple nutsedge; format: in vivo, Cyperus rotundus
Method in brief: as §1

soybean = assay: Test B pre/postemergence soybean; format: in vivo, Glycine max
Method in brief: as §1

[1] = Postemergence, Rate 62 g/ha, scale 0 to 10, 0 is no effect, 10 is complete control
[2] = Postemergence, Rate 250 g/ha, scale 0 to 10, 0 no effect, 10 complete control
[3] = Preemergence, Rate 62 g/ha, scale 0 to 10, 0 is no effect, 10 is complete control
[4] = Preemergence, Rate 125 g/ha, scale 0 to 10 (0 no effect, 10 complete control)
[5] = Preemergence, Rate 250 g/ha, scale of 0 to 10 where 0 is no effect and 10 is complete control
[6] = Preemergence, Rate 500 g/ha, scale 0 (no effect) to 10 (complete control)
[7] = Rate 125 g/ha, Postemergence, scale 0 to 10, 0 no effect, 10 complete control
[8] = Rate 500 g/ha, Postemergence, scale 0 to 10, 0 no effect, 10 complete control
[9] = Rate 125 g/ha, Postemergence section (flood test species), scale 0 to 10, 0 no effect, 10 complete control
[10] = Rate 500 g/ha, listed under Postemergence (flood test species), scale 0 to 10, 0 no effect, 10 complete control
[11] = flood test, listed under Postemergence, Rate 250 g/ha, scale 0 to 10, 0 no effect, 10 complete control

## Cc1ccccc1-n1c(=O)on(C(=O)N(c2ccc(C#N)cc2)C(C)C)c1=O [Compound 51]
rape; [1]
  Rape plant response rating: 0
rape; [2]
  Rape plant response rating: 0
rape; [3]
  Plant response rating, Rape: 0
rape; [4]
  Plant response rating, Rape: 0
rape; [5]
  Plant response rating, Rape: 0
rape; [6]
  Rape plant response rating: 0
rape; [7]
  Rape plant response rating: 0
rape; [8]
  Rape plant response rating: 0
cocklebur; [1]
  Cocklebur plant response rating: 0
cocklebur; [2]
  Cocklebur plant response rating: 0
cocklebur; [3]
  Plant response rating, Cocklebur: 0
cocklebur; [4]
  Plant response rating, Cocklebur: 0
cocklebur; [5]
  Plant response rating, Cocklebur: 0
cocklebur; [6]
  Cocklebur plant response rating: 0
cocklebur; [7]
  Cocklebur plant response rating: 0
cocklebur; [8]
  Cocklebur plant response rating: 0
crabgrass; [1]
  Crabgrass plant response rating: 0
crabgrass; [2]
  Crabgrass plant response rating: 3
crabgrass; [3]
  Plant response rating, Crabgrass: 0
crabgrass; [4]
  Plant response rating, Crabgrass: 0
crabgrass; [5]
  Plant response rating, Crabgrass: 2
crabgrass; [6]
  Crabgrass plant response rating: 2
crabgrass; [7]
  Crabgrass plant response rating: 0
crabgrass; [8]
  Crabgrass plant response rating: 4
Wild oat; [1]
  Wild oats plant response rating: 0
Wild oat; [2]
  Wild oats plant response rating: 0
Wild oat; [4]
  Plant response rating, Wild oats: 0
Wild oat; [5]
  Plant response rating, Wild oats: 0
Wild oat; [6]
  Wild oats plant response rating: 0
Wild oat; [7]
  Wild oats plant response rating: 0
Wild oat; [8]
  Wild oats plant response rating: 0
Surinam grass; [1]
  B. signalgrass plant response rating: 0
Surinam grass; [2]
  B. signalgrass plant response rating: 0
Surinam grass; [3]
  Plant response rating, B. signalgrass: 0
Surinam grass; [4]
  Plant response rating, B. signalgrass: 0
Surinam grass; [5]
  Plant response rating, B. signalgrass: 0
Surinam grass; [6]
  B. signalgrass plant response rating: 0
Surinam grass; [7]
  B. signalgrass plant response rating: 0
Surinam grass; Rate 500 g/ha, Postemergence, scale of 0 to 10 where 0 is no effect and 10 is complete control
  B. signalgrass plant response rating: 0
blackgrass; [1]
  Blackgrass plant response rating: 0
blackgrass; [2]
  Blackgrass plant response rating: 0
blackgrass; [3]
  Plant response rating, Blackgrass: 0
blackgrass; [4]
  Plant response rating, Blackgrass: 0
blackgrass; [5]
  Plant response rating, Blackgrass: 0
blackgrass; [6]
  Blackgrass plant response rating: 0
blackgrass; [7]
  Blackgrass plant response rating: 0
blackgrass; [8]
  Blackgrass plant response rating: 0
Sugar beet; [1]
  Sugarbeets plant response rating: 0
Sugar beet; [2]
  Sugarbeets plant response rating: 0
Sugar beet; [3]
  Plant response rating, Sugarbeets: 0
Sugar beet; [4]
  Plant response rating, Sugarbeets: 0
Sugar beet; [5]
  Plant response rating, Sugarbeets: 0
Sugar beet; [6]
  Sugarbeets plant response rating: 0
Sugar beet; [7]
  Sugarbeets plant response rating: 0
Sugar beet; [8]
  Sugarbeets plant response rating: 0
Smallflower flatsedge; [1]
  S. Flatsedge plant response rating: 0
Smallflower flatsedge; [9]
  S. Flatsedge plant response rating: 0
Smallflower flatsedge; [10]
  S. Flatsedge plant response rating: 0
Smallflower flatsedge; [11]
  S. Flatsedge plant response rating: 0
velvetleaf; [1]
  Velvetleaf plant response rating: 0
velvetleaf; [2]
  Velvetleaf plant response rating: 0
velvetleaf; [3]
  Plant response rating, Velvetleaf: 0
velvetleaf; [4]
  Plant response rating, Velvetleaf: 0
velvetleaf; [5]
  Plant response rating, Velvetleaf: 0
velvetleaf; [6]
  Velvetleaf plant response rating: 0
velvetleaf; [7]
  Velvetleaf plant response rating: 0
velvetleaf; [8]
  Velvetleaf plant response rating: 0
corn; [1]
  Corn plant response rating: 0
corn; [2]
  Corn plant response rating: 0
corn; [3]
  Plant response rating, Corn: 0
corn; [4]
  Plant response rating, Corn: 0
corn; [5]
  Plant response rating, Corn: 0
corn; [6]
  Corn plant response rating: 0
corn; [7]
  Corn plant response rating: 0
corn; [8]
  Corn plant response rating: 0
wheat; [1]
  Wheat plant response rating: 0
wheat; [2]
  Wheat plant response rating: 0
wheat; [3]
  Plant response rating, Wheat: 0
wheat; [4]
  Plant response rating, Wheat: 0
wheat; [5]
  Plant response rating, Wheat: 0
wheat; [6]
  Wheat plant response rating: 0
wheat; [7]
  Wheat plant response rating: 0
wheat; [8]
  Wheat plant response rating: 0
pigweed; [1]
  Redroot pigweed plant response rating: 0
pigweed; [2]
  Redroot pigweed plant response rating: 0
pigweed; [3]
  Plant response rating, Redroot pigweed: 0
pigweed; [4]
  Plant response rating, Redroot pigweed: 0
pigweed; [5]
  Plant response rating, Redroot pigweed: 0
pigweed; [6]
  Redroot pigweed plant response rating: 0
pigweed; [7]
  Redroot pigweed plant response rating: 0
pigweed; [8]
  Redroot pigweed plant response rating: 0
bedstraw; [1]
  Bedstraw plant response rating: 0
bedstraw; [2]
  Bedstraw plant response rating: 0
bedstraw; [3]
  Plant response rating, Bedstraw: 0
bedstraw; [4]
  Plant response rating, Bedstraw: 0
bedstraw; [5]
  Plant response rating, Bedstraw: 0
bedstraw; [6]
  Bedstraw plant response rating: 0
bedstraw; [7]
  Bedstraw plant response rating: 0
bamyardgrass; [1]
  Barnyardgrass plant response rating: 0
bamyardgrass; [9]
  Barnyardgrass plant response rating: 0
bamyardgrass; [10]
  Barnyardgrass plant response rating: 0
bamyardgrass; [11]
  Barnyardgrass plant response rating: 0
Purple nutsedge; [1]
  Nutsedge plant response rating: 0
Purple nutsedge; [2]
  Nutsedge plant response rating: 0
Purple nutsedge; [3]
  Plant response rating, Nutsedge: 0
Purple nutsedge; [4]
  Plant response rating, Nutsedge: 0
Purple nutsedge; [5]
  Plant response rating, Nutsedge: 0
Purple nutsedge; [6]
  Nutsedge plant response rating: 0
Purple nutsedge; [7]
  Nutsedge plant response rating: 0
Purple nutsedge; [8]
  Nutsedge plant response rating: 0
soybean; [1]
  Soybean plant response rating: 0
soybean; [2]
  Soybean plant response rating: 0
soybean; [3]
  Plant response rating, Soybean: 0
soybean; [4]
  Plant response rating, Soybean: 0
soybean; [5]
  Plant response rating, Soybean: 0
soybean; [6]
  Soybean plant response rating: 0
soybean; [7]
  Soybean plant response rating: 0
soybean; [8]
  Soybean plant response rating: 1

Reference: patent publication US6737383B1, “Herbicidal oxadiazolidines” (priority 1999, dated 2004)
